Source: US8420621B2, “Methods of using gamma cyclodextrin to control blood glucose and insulin secretion” (Abbott Laboratories, priority 2004, dated 2013)

Experiments:
[1] = tested on: male fatty Zucker fa/fa rats; assay: Meal glucose tolerance test, postprandial glycemic response to a carbohydrate challenge; type: in vivo, rat
From the text: The objective of the animal study was to evaluate the postprandial glycemic response of male fatty Zucker fa/fa rats to a carbohydrate challenge consisting of gamma-cyclodextrin or maltodextrin.
Twenty male fatty Zucker fa/fa rats were obtained from Harlan (Indianapolis, Ind., USA). At the time of testing, rats weighed ˜450 grams. Rats were individually housed in microisolator cages on dry bedding and were given ad libitum access to water and non-purified rat diet (pelletted; 8640 Harlan Teklad 22/5 Rodent Diet; Harlan Teklad, Madison, Wis., USA). The housing facility was maintained at 19-23° C., 30-70% relative humidity, and 12-hour light-dark cycle.
Test carbohydrates were evaluated in a randomized crossover design with a 7-day washout period between each meal glucose tolerance test (MGTT). Every rat received each treatment. Rats were routinely fed the non-purified diet. After overnight food deprivation, rats were orally fed test meals as a solution. Rats consumed the test meal within 1 minute. Blood samples were collected from the tail vein and immediately analyzed for plasma glucose by the glucose oxidase method utilizing a Precision G Blood Glucose Testing System (Medisense, Inc., Bedford, Mass., USA) before (0 minutes) and 30, 60, 90, 120, and 180 minutes postprandial. Rats had free access to water throughout the […].
Lodex 15® (maltodextrin) was obtained from Cerestar USA (Hammond, Ind., USA) with a dextrose equivalence (DE) of 15. Gamma-cyclodextrin (Wacker Cavamax W8) was obtained from Wacker Biochem Corp., Müchen, Germany. Carbohydrates were made into 500 g/L solutions with water. Each solution was heated in a microwave for 30 seconds to completely solubilize the carbohydrate solutions 1 hour before testing. Test meal volume was ˜1 mL and was adjusted such that each rat was delivered an equivalent carbohydrate challenge (1.0 g/kg body weight).

healthy adult subjects [2] = assay: Clinical study: postprandial plasma glucose response; type: in vivo, human
From the text: Thirty-two healthy adult subjects received two treatments in a double-masked, randomized, crossover design. The two treatments consisted of 50 g challenges of either maltodextrin or gamma-cyclodextrin. Blood samples were collected over a three-hour period, and breath samples collected over an eight-hour period following consumption of each carbohydrate. […] This study utilized a randomized, double-masked, crossover design, with a 4-14 day washout period between treatments. Before completing the two treatment visits, each subject completed one pre-study gastrointestinal tolerance test visit. Randomization was carried out by sealed envelopes stating which pre-study treatment was to be received, as well as in which sequence the two treatment visits were to be carried out. These envelopes were prepared from randomization schedules generated at Ross Products Division of Abbott Laboratories, Two product coordinators assigned an envelope from the top of the pile to each subject in the order that they passed all screening criteria and were given subject numbers. Besides carrying out randomization, the product coordinators were responsible for study product inventory and serving the appropriate product to subjects at each visit so that other study staff could not become aware of the study product identity. […] At each of the two treatment visits, subjects received 16 fl oz of a study product containing either 50 g of maltodextrin or 50 g of gamma-cyclodextrin. All beverages were served cold in styrofoam cups with lids and straws, labeled only with the subject number, subject initials and visit number, with the intention of hiding any slight differences in appearance that could be visible to study staff or subjects. On two separate treatment visits, subjects received, in random order, one of the two study beverages. Three days prior to each treatment visit, subjects recorded their food and beverage intake in a food diary. Subjects were required to consume ≧150 g of carbohydrate each day for three days prior to each treatment. Subjects were not to engage in vigorous exercise for 24 hours before each treatment. Subjects consumed an evening low residue Ensure® meal and completed a 10-16 hour overnight fast as detailed previously. […] A breath sample was collected for measurement of breath hydrogen. […] Plasma glucose was measured using an AccuChek Advantage Blood Glucose Monitoring System® (Roche Diagnostics, Indianapolis, Ind.). […] Positive incremental area under the plasma glucose response curve for two hours after each treatment will be calculated using the method of Wolever et al, The glycemic index: methodology and clinical implications, Amer. […]

healthy adult subjects [3] = details: single 8 g doses, Koutsou et al. 1999; cited from earlier work

## OC[C@H]1O[C@@H]2O[C@H]3[C@H](O)[C@@H](O)[C@@H](O[C@H]4[C@H](O)[C@@H](O)[C@@H](O[C@H]5[C@H](O)[C@@H](O)[C@@H](O[C@H]6[C@H](O)[C@@H](O)[C@@H](O[C@H]7[C@H](O)[C@@H](O)[C@@H](O[C@H]8[C@H](O)[C@@H](O)[C@@H](O[C@H]9[C@H](O)[C@@H](O)[C@@H](O[C@H]1[C@H](O)[C@H]2O)O[C@@H]9CO)O[C@@H]8CO)O[C@@H]7CO)O[C@@H]6CO)O[C@@H]5CO)O[C@@H]4CO)O[C@@H]3CO [Gamma-Cyclodextrin, Gamma-cyclodextrin]
[1]; 0 min, 1.0 g/kg body weight oral
  Change from baseline in plasma glucose, Change@ 0 min: 0
[1]; 30 min, 1.0 g/kg body weight oral
  Change from baseline in plasma glucose, Change@ 30 min: 52.0 ± 9.4
[1]; 30 min postprandial, 1.0 g/kg body weight oral
  Plasma glucose, 30 min: 165.6 ± 10.6
[1]; 60 min, 1.0 g/kg body weight oral
  Change from baseline in plasma glucose, Change@ 60 min: 48.1 ± 5.5
[1]; 60 min postprandial, 1.0 g/kg body weight oral
  Plasma glucose, 60 min: 161.8 ± 7.8
[1]; 90 min, 1.0 g/kg body weight oral
  Change from baseline in plasma glucose, Change@ 90 min: 38.0 ± 4.1
[1]; 90 min postprandial, 1.0 g/kg body weight oral
  Plasma glucose, 90 min: 151.6 ± 7.0
[1]; 120 min, 1.0 g/kg body weight oral
  Change from baseline in plasma glucose, Change@ 120 min: 39.4 ± 4.3
[1]; 120 min postprandial, 1.0 g/kg body weight oral
  Plasma glucose, 120 min: 153.1 ± 6.5
[1]; 180 min, 1.0 g/kg body weight oral
  Change from baseline in plasma glucose, Change@ 180 min: 28.9 ± 5.3
[1]; 180 min postprandial, 1.0 g/kg body weight oral
  Plasma glucose, 180 min: 142.6 ± 6.4
[1]; at 60 and 90 minutes, P<0.05
  Glucose concentration compared to consumption of maltodextrin: lower
[1]; baseline before test meal, 1.0 g/kg body weight oral, mean ± spread
  Plasma glucose, 0 min: 113.6 ± 4.2
[1]; oral, 1.0 g/kg, after heat treatment of the solution
  Glycemic response relative to a comparable amount of Lodex 15: blunted glycemic response
Healthy adult subjects [2]; 50 g oral challenge
  Plasma glucose area under the curve (AUC), effect versus maltodextrin: significantly reduced
Healthy adult subjects [2]; 50 g oral, crossover analysis p<0.0001
  Adjusted peak glucose, difference between treatments: significant difference
Healthy adult subjects [2]; 50 g oral, mean±SEM, n=31
  Positive incremental 120 min plasma glucose AUC: 133.2±16.5
Healthy adult subjects [2]; baseline to 120 min, 50 g oral
  Relative glycemic response compared with maltodextrin: 55%
Healthy adult subjects [3]
  Gastrointestinal tolerance: good tolerance
